According to patent US11673866B2, “Estrogen receptor beta ligands for the prevention and treatment of multiple sclerosis (MS) and other demyelinating, inflammatory and neurodegenerative diseases” (The Board of Trustees of the University of Illinois, priority 2018, dated 2023):
Entries after “also recorded” stand apart in the source; their conditions may differ.

Assays:
[1] = tested on: EAE mice; experiment: EAE clinical disease score; format: in vivo, mouse; design: key to Disability: Disease score: ‘+’ indicate marker was significantly (p ≤ 0.05) increased in treatment group relative to vehicle; ‘−’ indicates marker was significantly (p ≤ 0.05) decreased in treatment group relative to vehicle; ○: ‘o’ indicate marker did not change relative to vehicle; details: for Disability: Disease score / EAE clinical scores / disease progression: vs vehicle; for EAE clinical symptoms during peak disease: therapeutic 5 mg/kg/d from day 8 (postEAE); for EAE clinical scores / disease progression: therapeutic s.c. from day 8 (postEAE)
[2] = tested on: EAE mice; experiment: Rotarod behavioral assay in EAE mice; format: in vivo, mouse; design: key to Disability: Rotarod performance: ‘+’ indicate marker was significantly (p ≤ 0.05) increased in treatment group relative to vehicle; ‘−’ indicates marker was significantly (p ≤ 0.05) decreased in treatment group relative to vehicle; ○: ‘o’ indicate marker did not change relative to vehicle; details: for Disability: Rotarod performance: vs vehicle; for rotarod performance (motor function): therapeutic s.c. from day 8 (postEAE)
Procedure: Rotarod behavioral assay: Motor behavior was tested up to two times per week for each mouse using a rotarod apparatus (Med Associates, Inc., St. Albans, Vt.). Briefly, animals were placed on a rotating horizontal cylinder for a maximum of 200 seconds. The amount of time the mouse remained walking on the cylinder without falling was recorded. Each mouse was tested on a speed of 3-30 rpm and given three trials for any given day. The three trials were averaged to report a single value for an individual mouse, and averages were then calculated for all animals within a given treatment group (Moore et al., 2014). The first two trial days prior to immunization served as practice trials.
As a complementary assay of motor function, mice were tested on a rotarod device following a previously described protocol (Moore et al., 2014). […] (FIG. 2B).

[3] = biological target: T1, ERα (Homo sapiens, UniProt P03372); experiment: Relative binding affinity (RBA) to estrogen receptor alpha, radiometric measurement; details: relative value to 100% for E2 by radiometric measurement
T1 sequence (P03372 1-595): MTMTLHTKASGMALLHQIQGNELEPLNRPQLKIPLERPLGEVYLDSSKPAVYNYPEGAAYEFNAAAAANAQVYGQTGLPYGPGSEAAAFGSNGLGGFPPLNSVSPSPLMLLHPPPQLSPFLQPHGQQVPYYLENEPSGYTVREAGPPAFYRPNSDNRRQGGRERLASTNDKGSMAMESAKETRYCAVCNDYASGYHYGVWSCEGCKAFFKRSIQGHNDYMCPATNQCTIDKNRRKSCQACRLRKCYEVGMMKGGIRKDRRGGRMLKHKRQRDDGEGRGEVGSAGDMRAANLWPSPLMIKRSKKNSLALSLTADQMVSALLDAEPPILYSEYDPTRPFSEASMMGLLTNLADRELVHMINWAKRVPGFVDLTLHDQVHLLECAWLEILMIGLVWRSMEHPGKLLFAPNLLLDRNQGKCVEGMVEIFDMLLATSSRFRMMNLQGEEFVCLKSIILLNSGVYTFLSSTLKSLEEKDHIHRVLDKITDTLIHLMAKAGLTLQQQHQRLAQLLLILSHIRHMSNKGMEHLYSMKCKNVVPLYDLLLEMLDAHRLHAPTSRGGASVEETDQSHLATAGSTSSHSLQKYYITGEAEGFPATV

[4] = tested on: myelin basic protein (MBP) in thoracic spinal cord ventral column; experiment: MBP immunoreactivity in thoracic ventral column white matter of EAE mice; format: in vivo, mouse; details: therapeutic treatment (postEAE), vs vehicle
Procedure: Histological Preparation of Tissues: Mice were deeply anesthetized by isoflurane (Piramal Healthcare) inhalation and perfused transcardially with phosphate buffered saline (PBS), followed by 10% formalin (Thermo Fisher Scientific) to fix tissues. Brains and spinal cords were dissected and post-fixed in 10% formalin (Thermo Fisher Scientific) for 24 hours, then cryoprotected in 30% sucrose (EMD Millipore, Darmstadt, Germany) for 48 hours and embedded in gelatin for sectioning. Embedded brains and spinal cords were then cut into 40-μm coronal sections using an HM525 NX cryostat (Thermo Fisher Scientific). Sections were collected serially and stored in PBS with 1% sodium azide at 4° C. until staining by immunohistochemistry, following a previously described protocol (Crawford et al., 2010; Moore et al., 2014).
Immunohistochemistry: Before histological staining, 40-μm free floating sections were thoroughly washed with PBS to remove residual sodium azide (Crawford et al., 2010). Sections were permeabilized with 0.3% Triton X-100 in ix PBS and 15% normal goat serum (NGS). […]
Confocal Microscopy: Thoracic spinal cord dorsal and ventral column sections, as well as CC were imaged using an Olympus BX61 confocal microscope (Olympus America Inc., Center Valley, Pa.) using a 10× and 40× objective. […] Immunostaining was quantified using unbiased stereology (Crawford et al., 2010). […] MBP^+, GFAP^+, CD45^+, Iba1^+, CC1^+, and CXCL1^+, staining intensity was measured as percent area of positive immunoreactivity within the region of interest and intensity of signal determined by ImageJ.
Treatment with IndCl or other ERβ ligands improves myelination within CNS white tracts of mice with EAE (Khalaj et al., 2013; Kumar et al., 2013; Moore et al., 2014). To establish the pro-myelinating effects of the IndCl analogues tested, thoracic ventral column white matter was assessed for myelin basic protein (MBP) immunoreactivity.

[5] = Post (therapeutic, postEAE) treatment of EAE mice
[6] = Pre (prophylactic, preEAE) E2 treatment of EAE mice

Structure (SMILES) | Disability: Disease score [1, 5] | Disability: Disease score [1, 6] | Disability: Rotarod performance [2, 5] | Disability: Rotarod performance [2, 6] | RBA ERα [3] | EAE clinical symptoms during peak disease [1] | EAE clinical scores / disease progression [1] | rotarod performance (motor function) [2] | MBP staining intensity, thoracic spinal cord ventral column [4]
C[C@]12CC[C@@H]3c4ccc(O)cc4CC[C@H]3[C@@H]1CC[C@@H]2O [E2, 170 estradiol] | ○ | − | ○ | + |  |  |  |  | 
Oc1ccc(-n2nc3ccc(O)cc3c2Cl)cc1 [IndCl, chloroindazole] | ○ |  | ○ |  | 0.03% | did not significantly affect EAE clinical symptoms | reversed disease progression over time | had a tendency to fall from the cylinder abruptly | maintained at near normal levels; also recorded: increased
Oc1ccc(-n2nc3ccc(O)cc3c2Cl)c(Cl)c1 [IndCl-o-Cl, 3-chloro-2-(2-chloro-4-hydroxyphenyl)-2H-indazol-5-ol] | − |  | + |  | 0.40% | did not significantly affect EAE clinical symptoms | reversed disease progression over time; also recorded: significantly reduced | increase of EAE mice remaining on the rotarod; also recorded: improved rotarod performance | maintained at near normal levels; also recorded: increased
Cc1cc(O)ccc1-n1nc2ccc(O)cc2c1Cl [IndCl-o-Me, 3-chloro-2-(4-hydroxy-2-methylphenyl)-2H-indazol-5-ol] | − |  | + |  | 0.43% | did not significantly affect EAE clinical symptoms | reversed disease progression over time; also recorded: significantly reduced | improved rotarod performance; also recorded: greatest improvement in motor function | maintained at near normal levels; also recorded: increased
